# Source: article PMC3747624, “Cloning and Characterization of EF-Tu and EF-Ts from Pseudomonas aeruginosa” (BioMed Research International, 2013)
# Like-named read-outs stand apart in the source and are kept apart here.
# Assays:
# P. aeruginosa EF-Tu [1] = target: T1, P. aeruginosa EF-Tu (Pseudomonas aeruginosa, UniProt P09591); assay: GDP exchange initial velocity assay (nitrocellulose filter binding); type: biochemical; conditions: for Km: EF-Tu 0.64 μM, 37°C, Lineweaver-Burk, read-out: KM for the interaction of EF-Tu with GDP
# T1 construct: made in house; host or cells: E. coli Rosetta 2(DE3), pET101/D-TOPO
# Description: Nitrocellulose filter binding assays were used to determine GDP exchange by EF-Tu as previously described. Assays to determine the initial velocity of GDP exchange were in buffer B (50 mM Tris-HCl, (pH 7.5), 50 mM NH4Cl, and 10 mM MgCl2, 1.0 mM dithiothreitol (DTT)) containing 12 μM [^3H]GDP (500 cpm/pmol). Reactions were incubated at 37°C and were stopped by diluting the reaction mix to 2 mL in buffer B and immediately filtered through nitrocellulose (Whatman; Protran BA 85). Filters were washed three times with 2 mL of buffer B and allowed to dry, and the amount of EF-Tu·[^3H]GDP complex retained was determined by scintillation counting (Beckman Coulter LS 6500). Initial velocity reactions were from 1 to 4 min, and GDP concentrations were varied as indicated.
# Historically, the GDP exchange assay has been used to determine the activity of EF-Tu. […] The kinetic parameters KM and Vmax for the interaction of P. aeruginosa EF-Tu with GDP were determined by inserting the initial velocity data into Lineweaver-Burk plots (Figure 4(b)).
# P. aeruginosa EF-Tu [2] = target: T1, P. aeruginosa EF-Tu; assay: Equilibrium dissociation constants of EF-Tu·GDP and EF-Tu·GTP complexes (dilution, nitrocellulose filter binding)
# Description: Reactions were carried out to determine the equilibrium dissociation constants (K GDP and K GTP) for the interaction of P. aeruginosa EF-Tu with GDP and GTP. The reaction was carried out in buffer B containing 1.3 μM total P. aeruginosa EF-Tu and 12 μM [^3H]GDP (500 cpm/pmol) or [^3H]GTP (750 cpm/pmol). EF-Ts was added to 0.05 μM as indicated. To form EF-Tu·nucleotide complexes, the reactions were incubated for 2 h at 0°C. To determine the total amount of complex formed (defined as active amounts of EF-Tu), reactions were immediately filtered through nitrocellulose filters following incubation. Reactions to determine K GDP and K GTP were diluted by the addition of 5 mL of buffer B that had been preincubated at 37°C, 23°C, or 0°C. Incubation was continued at those temperatures after dilution for 10, 20, and 30 min, respectively. Remaining amounts of the complexes were determined by filtration through nitrocellulose filters.
# The percentage of EF-Tu capable of exchanging GDP (active EF-Tu) was determined from assays described in Section 3.6 which measured the total EF-Tu·[^3H]GDP complexes formed. In these assays, saturating amounts of [^3H]GDP (12 μM) were incubated with EF-Tu on ice for 2 h, and the total labeled EF-Tu·[^3H]GDP complex was determined using nitrocellulose filter binding, which retained the complex but not free GDP. The maximum amount of EF-Tu·GDP complex observed would be equivalent to the concentration of EF-Tu capable of exchanging GDP. Approximately 50% of EF-Tu was capable of forming an EF-Tu·[^3H]GDP complex. In the subsequent experiments containing EF-Tu, the results were based on the concentration of active EF-Tu.
# The equilibrium dissociation constants for the EF-Tu·GDP (K GDP) and EF-Tu·GTP (K GTP) complexes were calculated from measurements of the extent of dissociation of the complexes in dilute solutions. Both complexes were formed by incubation at […] for 2 h in 50 μL reactions (Section 3.3). […] To determine dissociation, the 50 μL reactions were diluted by addition of 5 mL of reaction mix (minus enzyme and nucleotide) that had been preincubated to 37°C, 23°C, or 0°C, and incubation was continued at these temperatures for 10, 20, and 30 min, respectively. These were the conditions used to determine the K GDP for interaction of E. coli EF-Tu with GDP, and we maintained the same conditions in the determination of the K GTP.
# The concentration of complex immediately after dilution was approximately 6.0 × 10^−3 μM. After incubation, the remaining EF-Tu·GDP complex was determined. Total GDP was calculated as the amount of added [^3H]GDP plus GDP that had copurified with EF-Tu. Free GDP was the amount of total GDP minus complexes formed, and free EF-Tu was the amount of initial complex minus remaining complex. The equilibrium dissociation constants for the complexes were calculated using the following equation: (1) KGD/TP=[EF−Tufree][GD/TPfree]/[EF−Tu·GD/TP]. We observed KGDP values for EF-Tu that ranged from 30 to 75 nM in the absence of EF-Ts at the temperatures in which the EF-Tu·GDP complex was allowed to dissociate (Table 2). Previous studies to determine the KGDP governing the binding of GDP to EF-Tu in the E. coli system included EF-Ts in the assays, and therefore we also carried out assays to determine the KGDP in the presence of EF-Ts. There was no statistical change of the KGDP observed in the presence of EF-Ts (30 to 40 nM). These values are within 3-fold of that seen in the E. coli system in which the equilibrium dissociation constant (5 to 10 nM) was determined in the presence of EF-Ts.
# E. coli EF-Tu = conditions: cited from earlier work
# Leu-tRNA^Leu and GTP = Leu-tRNA^Leu and GTP (Pseudomonas aeruginosa, UniProt P09591); conditions: 1.2 μM [3H]Leu-tRNA^Leu, 0.5 mM GTP, 15 min 4°C, RNase A
# Description: Ternary complex formation was assayed by examining the ability of EF-Tu to protect [^3H]Leu-tRNA^Leu ) from digestion by RNase A [21, 22]. EF-Tu (0, 0.6, 0.9, 1.2, 1.5, 1.8, 2.1, and 2.4 μM) was incubated in reaction mixtures (50 μL) containing 1.2 μM [^3H]Leu-tRNA^Leu, 0.5 mM GTP, 50 mM Tris-HCl, (pH 7.5), 1 mM DTT, 50 mM NH4Cl, and 6.5 mM MgCl2 for 15 min at 4°C. RNAase A was then added to a final concentration of 0.02 mg/mL and incubated for an additional 20 s. The reactions were stopped by the addition of 3 mL of ice-cold 5% trichloroacetic acid (TCA) and filtered through nitrocellulose filters (Whatman). Retention of [^3H]Leu signified EF-Tu protection of [^3H]Leu-tRNA^Leu from nuclease digestion [22].
# To determine the ability of P. aeruginosa EF-Tu to form a ternary complex with Leu-tRNA^Leu and GTP, the nuclease protection assay was used [19, 22]. The nuclease protection assay measures the formation of a ternary complex by the ability of EF-Tu to protect the 3′ end of the tRNA with the covalently attached [^3H]Leu from digestion by RNase A [45]. […] Reactions contained enough RNase A to hydrolyze over 90% of the leucine away from tRNA^Leu .
# P. aeruginosa ribosomes = assay: Poly(U)-dependent binding of Phe-tRNA^Phe ternary complex to the ribosomal A-site; type: biochemical, Pseudomonas aeruginosa; conditions: 3.2 μM EF-Tu, 1 μM ribosomes, GDPNP
# Description: To determine ternary complex binding to the ribosome, a mixture containing 50 mM Tris-HCl, (pH 7.5), 0.1 mM spermine, 40 mM KCl, 4 mM MgCl2, 1.0 mM DTT, 0.3 mM GTP or guanosine 5′-[β,γ-imido]triphosphate (GDPNP), 0.15 mg/mL poly(U) mRNA, 0.06 μM P. aeruginosa EF-Ts, 3.2 μM EF-Tu, 1.0 μM P. aeruginosa ribosomes, and 0.75 μM [^3H]Phe-tRNA^Phe (25 cpm/pmol) was used. The concentration of EF-Tu was varied from 0.32 to 1.6 μM as indicated. All components were preincubated at 37°C for 15 min in the absence of ribosomes to allow ternary complex formation. Ribosomes were then added, and incubation was continued for an additional 15 min at the same temperature. The amounts of [^3H]Phe-tRNA^Phe bound to the ribosome, representing ternary complex, were analyzed using glass microfiber filter (Whatman) binding as previously described. Control reactions lacked either EF-Tu or ribosomes.
# Aminoacylated tRNA is bound at the ribosomal A-site in a ternary complex. The amount of aminoacylated tRNAs that can be bound to the A-site of the ribosome in a ternary complex was measured using [^3H]Phe-tRNA^Phe in poly(U)-dependent assays. In the absence of poly(U), a basal level of ternary complex will bind to the ribosome. In these assays, GTP was replaced with the nonhydrolyzable analog GDPNP to prevent hydrolysis of the nucleotide and dissociation of EF-Tu. […]
# [3] = target: Pseudomonas aeruginosa elongation factor Tu (Pseudomonas aeruginosa PAO1) (UniProt P09591)
# Pseudomonas aeruginosa elongation factor Tu (Pseudomonas aeruginosa PAO1), sequence (P09591 whole entry): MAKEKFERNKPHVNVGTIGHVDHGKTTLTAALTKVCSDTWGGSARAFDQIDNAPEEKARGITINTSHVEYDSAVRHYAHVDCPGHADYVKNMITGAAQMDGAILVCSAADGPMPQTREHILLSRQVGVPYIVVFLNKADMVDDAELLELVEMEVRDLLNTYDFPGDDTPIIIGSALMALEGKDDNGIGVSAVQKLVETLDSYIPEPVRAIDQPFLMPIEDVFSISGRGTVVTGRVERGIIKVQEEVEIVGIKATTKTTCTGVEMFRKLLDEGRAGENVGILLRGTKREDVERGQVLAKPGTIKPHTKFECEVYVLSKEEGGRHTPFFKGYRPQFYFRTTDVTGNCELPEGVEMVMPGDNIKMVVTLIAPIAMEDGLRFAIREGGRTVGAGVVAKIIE
# T1 sequence (P09591 whole entry): as above
# Leu-tRNA^Leu and GTP, sequence (P09591 whole entry): as above
molecule,measurement,setting,value
Nc1nc2c(ncn2[C@@H]2O[C@H](COP(=O)(O)OP(=O)(O)O)[C@@H](O)[C@H]2O)c(=O)[nH]1 [GDP],kcat obs for exchange of GDP by EF-Tu,P. aeruginosa EF-Tu [1]; absence of EF-Ts,0.003 s⁻¹
same,Km,P. aeruginosa EF-Tu [1]; absence of EF-Ts,33 µM
same,kcat obs for exchange of GDP by EF-Tu,P. aeruginosa EF-Tu [1]; presence of EF-Ts 0.01 μM,0.005 s⁻¹
same,Km,P. aeruginosa EF-Tu [1]; presence of EF-Ts 0.01 μM,2 µM
same,Kd,"P. aeruginosa EF-Tu [2]; EF-Ts 0, 0°C, read-out: K GDP",58 nM
same,Kd,"P. aeruginosa EF-Tu [2]; EF-Ts 0, 23°C, read-out: K GDP",38 nM
same,Kd,"P. aeruginosa EF-Tu [2]; EF-Ts 0, 37°C, read-out: K GDP",72 nM
same,Kd,"P. aeruginosa EF-Tu [2]; EF-Ts 0.5 ×10^−3 μM, 0°C, read-out: K GDP",43 nM
same,Kd,"P. aeruginosa EF-Tu [2]; EF-Ts 0.5 ×10^−3 μM, 23°C, read-out: K GDP",30 nM
same,Kd,"P. aeruginosa EF-Tu [2]; EF-Ts 0.5 ×10^−3 μM, 37°C, read-out: K GDP",34 nM
same,GDP bound more tightly than GTP,E. coli EF-Tu,up to 100 fold
Nc1nc2c(ncn2[C@@H]2O[C@H](COP(=O)(O)OP(=O)(O)OP(=O)(O)O)[C@@H](O)[C@H]2O)c(=O)[nH]1 [GTP],Kd,"P. aeruginosa EF-Tu [2]; EF-Ts 0, 0°C, read-out: K GTP",150 nM
same,Kd,"P. aeruginosa EF-Tu [2]; EF-Ts 0, 23°C, read-out: K GTP",123 nM
same,Kd,"P. aeruginosa EF-Tu [2]; EF-Ts 0, 37°C, read-out: K GTP",175 nM
same,Kd,"P. aeruginosa EF-Tu [2]; EF-Ts 0.5 ×10^−3 μM, 0°C, read-out: K GTP",156 nM
same,Kd,"P. aeruginosa EF-Tu [2]; EF-Ts 0.5 ×10^−3 μM, 23°C, read-out: K GTP",125 nM
same,Kd,"P. aeruginosa EF-Tu [2]; EF-Ts 0.5 ×10^−3 μM, 37°C, read-out: K GTP",190 nM
same,binding of GTP weaker than binding of GDP (KGTP vs KGDP),P. aeruginosa EF-Tu [2]; P. aeruginosa EF-Tu,up to 6 fold
"EF-Tu: recombinant elongation factor Tu from Pseudomonas aeruginosa, cloned, expressed and purified",EF-Tu active in ternary complex formation,Leu-tRNA^Leu and GTP,Up to 20%
same,share of the ternary complex formed that bound to the ribosome,P. aeruginosa ribosomes; 15 min,approximately 90%
same,ribosomes with ternary complex bound to the A-site,"P. aeruginosa ribosomes; within 15 min, 37°C",approximately 50%
same,specific activity for the exchange of GDP by EF-Tu,P. aeruginosa EF-Tu [1]; absence of EF-Ts,0.0047 µmol/min/mg
same,EF-Tu capable of forming an EF-Tu·[3H]GDP complex (active EF-Tu),"P. aeruginosa EF-Tu [2]; 12 μM [3H]GDP, on ice 2 h",Approximately 50%
same,"EF-Tu forming a complex with each form of the nucleotide (GDP, GTP)",P. aeruginosa EF-Tu [2]; incubation 2 h in 50 μL reactions,approximately 50%
Pseudomonas aeruginosa elongation factor Ts (natural protein) AEITAAMVKELRERTGLGMMECKKALTAAGGDIEKAIDDMRAAGAIKAAKKAGNIAAEGSIAVKIAADNKAAVIIEVNSQTDFLALQDDFKGFVAESLEKAFNEKLTDAAPLVEAREEARLALVAKTGENVNIRRLTRVEGDVVGAYLHGHRIGVVVNLKGGNPELAKDIAMHVAASNPQFLSASEVSEEAIAKEKEIFLALNADKIAGKPENIVENMVKGRISKFLAEASLVEQPFVKNPEVKVGDLAKQAGAEIVSFVRYEVGEGIEKAEVDFAAEVAAQVAATKQ,"[3H]GDP exchange by EF-Tu (0.64 uM, 1 uM GDP) with 0.05 uM EF-Ts against without EF-Ts, nitrocellulose filter binding, 15 to 120 s, 37°C",[3],7 to 8 fold
